Data taken from patent US20260015350A1, “AZAQUINAZOLINE PAN-KRAS INHIBITORS” (Mirati Therapeutics, Inc., priority 2022, published 2026).

Tests used:
[1] = system: KRas-mediated phosphorylation of ERK in H727 cells; experiment: Inhibition of KRas-mediated phosphorylation of ERK (Cisbio HTRF pERK), H727 cells; type: cell-based; conditions: Homo sapiens, NCI-H727, H727 cells; HTRF pERK
How it was run: (§1)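 Following a 3-hr exposure of cells to serially diluted compound (from 10 uM, 3-fold, 10 doses), cold lysis for 40 mins preceded a 2-hr room-temperature HTRF immunoassay for phosphorylated ERK.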

[2] = target: T1, KRas^G12V (Homo sapiens, UniProt P01116, G12V); experiment: KRas binding assay (TR-FRET tracer displacement), KRas G12V
T1 construct: Biotinylated KRas (corresponding to amino acids 1-169, produced at Accelegan Inc.); biotin (biotinylated); purchased Accelegan Inc

[3] = system: KRas-mediated phosphorylation of ERK in A549 cells; experiment: Inhibition of KRas-mediated phosphorylation of ERK (Cisbio HTRF pERK), A549 cells; type: cell-based; conditions: Homo sapiens, HTRF pERK
How it was run: (§2)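 Each compound was tested at 10 concentrations, threefold apart with 10 uM the highest, for 3 hrs on 6,000 seeded cells; final DMSO was 0.8% and Trametinib (0.2 uM) served as Min control. Lysed cells were analysed for pERK by HTRF.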

[4] = system: KRas-mediated phosphorylation of ERK in H358 cells; experiment: Inhibition of KRas-mediated phosphorylation of ERK (Cisbio HTRF pERK), H358 cells; type: cell-based; conditions: Homo sapiens, NCI-H358, HTRF pERK
How it was run: as §1

[5] = system: KRas-mediated phosphorylation of ERK in H460 cells; experiment: Inhibition of KRas-mediated phosphorylation of ERK (Cisbio HTRF pERK), H460 cells; type: cell-based; conditions: Homo sapiens, NCI-H460, HTRF pERK
How it was run: as §1

[6] = target: T2, KRas^G12R (Homo sapiens, UniProt P01116, G12R); experiment: KRas binding assay (TR-FRET tracer displacement), KRas G12R
T2 construct: Biotinylated KRas (corresponding to amino acids 1-169, produced at Accelegan Inc.); biotin (biotinylated); purchased Accelegan Inc

[7] = system: KRas-mediated phosphorylation of ERK in HCT116 cells; experiment: Inhibition of KRas-mediated phosphorylation of ERK (Cisbio HTRF pERK), HCT116 cells; type: cell-based; conditions: Homo sapiens, HCT-116, HTRF pERK
How it was run: as §2

[8] = system: KRas-mediated phosphorylation of ERK in MKN1 cells; experiment: Inhibition of KRas-mediated phosphorylation of ERK (Cisbio HTRF pERK), MKN1 cells; type: cell-based; conditions: Homo sapiens, MKN-1
How it was run: (§3)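 Phospho-ERK is quantified by HTRF with the Advanced pERK kit. Cells go in at 6,000/well in RPMI plus 10% FBS overnight at 37° C. under 5% CO2, with a 4-hour covered room-temperature incubation ahead of the read.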

[9] = system: KRas-mediated phosphorylation of ERK in PSN1 cells; experiment: Inhibition of KRas-mediated phosphorylation of ERK (Cisbio HTRF pERK), PSN1 cells; type: cell-based; conditions: Homo sapiens
How it was run: as §3

[10] = target: T3, KRas^G12D (Homo sapiens, UniProt P01116, G12D); experiment: KRas binding assay (TR-FRET tracer displacement), KRas G12D
T3 construct: Biotinylated KRas (corresponding to amino acids 1-169, produced at Accelegan Inc.); biotin (biotinylated); purchased Accelegan Inc

[11] = system: KRas-mediated phosphorylation of ERK in AsPC-1 cells; experiment: Inhibition of KRas-mediated phosphorylation of ERK (Cisbio HTRF pERK), AsPC-1 cells; type: cell-based; conditions: Homo sapiens, ASPC1, AsPC-1 cells; HTRF pERK
How it was run: as §1

T1 sequence (P01116 1-169 isoform P01116-2 G12V): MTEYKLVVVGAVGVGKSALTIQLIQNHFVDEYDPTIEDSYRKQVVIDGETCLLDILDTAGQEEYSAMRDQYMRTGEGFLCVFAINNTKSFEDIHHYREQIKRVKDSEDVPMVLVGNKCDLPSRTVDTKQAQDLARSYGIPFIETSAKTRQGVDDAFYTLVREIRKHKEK
T2 sequence (P01116 1-169 isoform P01116-2 G12R): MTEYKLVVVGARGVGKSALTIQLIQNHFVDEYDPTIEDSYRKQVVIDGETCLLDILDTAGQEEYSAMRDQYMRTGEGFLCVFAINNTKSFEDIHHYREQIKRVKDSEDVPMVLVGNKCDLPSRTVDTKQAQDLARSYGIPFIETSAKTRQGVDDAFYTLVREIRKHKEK
T3 sequence (P01116 1-169 isoform P01116-2 G12D): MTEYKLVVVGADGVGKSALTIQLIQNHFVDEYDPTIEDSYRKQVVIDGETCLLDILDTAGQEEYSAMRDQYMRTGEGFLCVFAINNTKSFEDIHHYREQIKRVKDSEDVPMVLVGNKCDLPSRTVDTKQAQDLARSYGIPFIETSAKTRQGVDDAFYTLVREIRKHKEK

IC50 [1] [nM] | IC50 [2] [nM] | IC50 [3] [nM] | IC50 [4] [nM] | IC50 [5] [nM] | IC50 [6] [nM] | IC50 [7] [nM] | IC50 [8] [nM] | IC50 [9] [nM] | IC50 [10] [nM] | IC50 [11] [nM] | Compound
24 | < 2 | 61 | 12 | 22 | < 2 | 53 | 21 | 3420 | < 2 | 17 | Oc1cc(-c2ncc3c(N4CCOCC5(CCO5)C4)nc(OC[C@@]45CCCN4C[C@H](F)C5)nc3c2F)c2c(Cl)c(F)ccc2c1 (stereo partly drawn) [Example 868, 5-chloro-6-fluoro-4-(8-fluoro-2-(((2R,7aS)-2-fluorotetrahydro-1H-pyrrolizin-7a(5H)-yl)methoxy)-4-(1,6-dioxa-9-azaspiro[3.6]decan-9-yl)pyrido[4,3-d]pyrimidin-7-yl)naphthalen-2-ol]
4520 | 116 | 2760 | 922 | 271 | 26 | 1200 | 290 | > 10000 | 210 | 3600 | CCc1c(F)ccc2cc(O)cc(-c3ncc4c(N5CC6CCC(C5)C6(F)F)nc(OC[C@@]56CCCN5C[C@H](F)C6)nc4c3F)c12 [Example 869, 4-(4-(8,8-difluoro-3-azabicyclo[3.2.1]octan-3-yl)-8-fluoro-2-(((2R,7aS)-2-fluorotetrahydro-1H-pyrrolizin-7a(5H)-yl)methoxy)pyrido[4,3-d]pyrimidin-7-yl)-5-ethyl-6-fluoronaphthalen-2-ol]
98 | < 2 | 66 | 10 | 25 | < 2 | 49 | 18 | 1300 | < 2 | 51 | CCc1c(F)ccc2cc(O)cc(-c3ncc4c(N5CCC[C@@](C)(O)C5)nc(OC[C@@]56CCCN5[C@H](COCC5CC5)CC6)nc4c3F)c12 [Example 870, (R)-1-(2-(((3S,7aS)-3-((cyclopropylmethoxy)methyl)tetrahydro-1H-pyrrolizin-7a(5H)-yl)methoxy)-7-(8-ethyl-7-fluoro-3-hydroxynaphthalen-1-yl)-8-fluoropyrido[4,3-d]pyrimidin-4-yl)-3-methylpiperidin-3-ol]
408 | 7 | 135 | 149 | 194 | 12 | 325 | 198 | > 10000 | 7 | 93 | CCCCN(CCCC)C(=O)OC[C@@H]1CC[C@@]2(COc3nc(N4CCC[C@@](C)(O)C4)c4cnc(-c5cc(O)cc6ccc(F)c(CC)c56)c(F)c4n3)CCCN12 [Example 873, ((3S,7aR)-7a-(((7-(8-ethyl-7-fluoro-3-hydroxynaphthalen-1-yl)-8-fluoro-4-((R)-3-hydroxy-3-methylpiperidin-1-yl)pyrido[4,3-d]pyrimidin-2-yl)oxy)methyl)hexahydro-1H-pyrrolizin-3-yl)methyl dibutylcarbamate]
81 | 2 | 22 | 16 | 21 | 3 | 48 | 22 | 2070 | < 2 | 12 | CCCCN(C)C(=O)OC[C@@H]1CC[C@@]2(COc3nc(N4CCC[C@@](C)(O)C4)c4cnc(-c5cc(O)cc6ccc(F)c(CC)c56)c(F)c4n3)CCCN12 [Example 874, ((3S,7aR)-7a-(((7-(8-ethyl-7-fluoro-3-hydroxynaphthalen-1-yl)-8-fluoro-4-((R)-3-hydroxy-3-methylpiperidin-1-yl)pyrido[4,3-d]pyrimidin-2-yl)oxy)methyl)hexahydro-1H-pyrrolizin-3-yl)methyl butyl(methyl)carbamate]
189 | 3 | 92 | 40 | 86 | 5 | 176 | 104 | 2150 | 3 | 79 | CCc1c(F)ccc2cc(O)cc(-c3ncc4c(N5CCC[C@@](C)(O)C5)nc(OC[C@]56CCCN5[C@@H](COC)CC6)nc4c3F)c12 [Example 877, (R)-1-(7-(8-ethyl-7-fluoro-3-hydroxynaphthalen-1-yl)-8-fluoro-2-(((3R,7aR)-3-(methoxymethyl)tetrahydro-1H-pyrrolizin-7a(5H)-yl)methoxy)pyrido[4,3-d]pyrimidin-4-yl)-3-methylpiperidin-3-ol]
83 | 3 | 125 | 52 | 53 | 6 | 186 | 16 | 4000 | 3 | 43 | CCc1c(F)ccc2cc(O)cc(-c3ncc4c(N5CCC[C@@](C)(O)C5)nc(OC[C@@]56CCCN5[C@@H](CF)CC6)nc4c3F)c12 [Example 878, (R)-1-(7-(8-ethyl-7-fluoro-3-hydroxynaphthalen-1-yl)-8-fluoro-2-(((3R,7aS)-3-(fluoromethyl)tetrahydro-1H-pyrrolizin-7a(5H)-yl)methoxy)pyrido[4,3-d]pyrimidin-4-yl)-3-methylpiperidin-3-ol]
35 | < 2 | 30 | 14 | 25 | 3 | 65 | 1 | 889 | 2 | 12 | CCc1c(F)ccc2cc(O)cc(-c3ncc4c(N5CCC[C@@](C)(O)C5)nc(OC[C@]56CCCN5[C@H](CF)CC6)nc4c3F)c12 [Example 879, (R)-1-(7-(8-ethyl-7-fluoro-3-hydroxynaphthalen-1-yl)-8-fluoro-2-(((3S,7aR)-3-(fluoromethyl)tetrahydro-1H-pyrrolizin-7a(5H)-yl)methoxy)pyrido[4,3-d]pyrimidin-4-yl)-3-methylpiperidin-3-ol]
252 | 7 | 822 | 95 | 211 | 12 | 772 | 94 | > 10000 | 53 | 1170 | CCc1c(F)ccc2cc(O)cc(-c3ncc4c(N5CC6CCC(C5)C65OCCO5)nc(OC[C@@]56CCCN5C[C@H](F)C6)nc4c3F)c12 [Example 883, 5-ethyl-6-fluoro-4-(8-fluoro-2-(((2R,7aS)-2-fluorotetrahydro-1H-pyrrolizin-7a(5H)-yl)methoxy)-4-(3-azaspiro[bicyclo[3.2.1]octane-8,2′-[1,3]dioxolan]-3-yl)pyrido[4,3-d]pyrimidin-7-yl)naphthalen-2-ol]
39 | < 2 | 30 | 7 | 8 | < 2 | 16 | 5 | 1320 | < 2 | 14 | CCc1c(F)ccc2cc(O)cc(-c3ncc4c(N5CCC[C@@](C)(O)C5)nc(OC[C@]56CCCN5[C@H](COC)CC6)nc4c3F)c12 [Example 885, (R)-1-(7-(8-ethyl-7-fluoro-3-hydroxynaphthalen-1-yl)-8-fluoro-2-(((3S,7aR)-3-(methoxymethyl)tetrahydro-1H-pyrrolizin-7a(5H)-yl)methoxy)pyrido[4,3-d]pyrimidin-4-yl)-3-methylpiperidin-3-ol]
135 | 2 | 73 | 18 | 27 | 4 | 59 | 22 | 2560 | 2 | 40 | CCc1c(F)ccc2cc(O)cc(-c3ncc4c(N5CCC[C@@](C)(O)C5)nc(OC[C@@]56CCCN5[C@@H](COC)CC6)nc4c3F)c12 [Example 886, (R)-1-(7-(8-ethyl-7-fluoro-3-hydroxynaphthalen-1-yl)-8-fluoro-2-(((3R,7aS)-3-(methoxymethyl)tetrahydro-1H-pyrrolizin-7a(5H)-yl)methoxy)pyrido[4,3-d]pyrimidin-4-yl)-3-methylpiperidin-3-ol]
